Residues, ends and D or L forms follow the SMILES beside them. No end group written: not given here. ξ: configuration not given here. *: point of attachment. Lip = lipoic acid (N-terminal), O=C(CCCC[C@@H]1CCSS1)*; Lipoyl(6ξ) = O=C(CCCCC1CCSS1)*
Tests used:
[1] = test system: N27 dopaminergic cells; assay: Survival of N27 dopaminergic cells in the presence of 300 μM MPP+ neurotoxic agent; assay type: cell-based, rat
[2] = test system: primary rat cortical cultures; assay: Oxygen-glucose deprivation (anoxia) of primary rat cortical cultures, LDH release into extracellular medium; assay type: cell-based
Procedure: Peptides of the invention have been examined for neuroprotective activity in primary rat cortical cultures. […] It rescued 90-100% of the neurons that were exposed to a 3 hour oxygen-glucose deprivation (OGD).
For the tests, primary mixed neuron-glia rat cortical cultures were grown to 80-95% confluence, as previously described (Shashoua, V. E. et al., Brain Res. (2004) 1024(1-2):34-43). Their neurons were grown over a layer of glia cells and formed a network of processes. Such cultures, after a 5× wash in oxygen-free (air displaced by argon) Hanks Balanced Salt Solution (HBSS) (Shashoua, V. E. et al., Brain Res. (2004) 1024(1-2):34-43) buffer, which contained no glucose, serum, and growth factors, were transferred for 3 hrs into the Form a Scientific Anaerobic Chamber (Thermo Forma, Marietta, Ohio) (Goldberg, M. P. and Choi, D. W. J Neurosci. (1993) 13(8):3510-3524) in an atmosphere of N2, CO2 and H2 (85%, 5%, and 10%). After exposure to oxygen-glucose deprivation (OGD) the neurons, retract their processes and generate vacuoles in their perikarya. […] Large increases (about 250%) in the release of lactic acid dehydrogenase (LDH, a marker of cell injury) into the extra-cellular medium occurred. For the test of glucose-oxygen deprivation on the release of lactic acid dehydrogenase as a function of time by primary rat cortical cultures, the LDH assay of extracellular fluid (1 ml aliquots) for cultures from cells were incubated for 24 hours under normoxia conditions and were compared with cells exposed up to 4 hours of anoxia in HBSS medium followed by normoxia medium for a total period of 24 hours. LDH was measured as absorbance at 490 nm, n=6 per time point (Shashoua, V. E. et al., Brain Res. (2004) 1024(1-2):34-43) (see Table 2). Assays and detection were performed according to manufacturer's instructions using a Promega Cyto Tox 96, a nonradioactive cytotoxicity assay kit (Promega, Madison, Wis.).
For these experiments there were n=6 per assay, and a 3 hour treatment of anoxia was followed by 21 hours of normoxia reperfusion. SEQ ID NO:1 was added at 1 hour post initiation of anoxia and was also present during the 21 hours of reperfusion. […] The results for SEQ ID NO:1 as well as the results for SEQ ID NOs:3 and 4, which are shown in Tables 3 and 4 give results of LDH assay that was done on supernatant of extracellular medium.

[3] = test system: noradrenergic neurons in the striatum; assay: Survival of noradrenergic neurons in the MPTP mouse model for Parkinson's disease; assay type: in vivo
Source text: Tests were done in the MPTP mouse model for Parkinson's disease.

[4] = test system: SH-SY5Y human neuroblastoma cells; assay: Protection of SH-SY5Y neuroblastoma cells from Yankner peptide (b/A4), LDH content of remaining cells; assay type: cell-based; details: 20 μM Yankner peptide alone
Procedure: A characteristic constituent of Alzheimer's Disease (AD) is the formation of plaques from the 39-43 amino acid long peptide derived from amyloid protein (Selkoe, D. TINS (1993) 16: 403-409). This molecule (b/A4) can be toxic to mammalian nerve cells. […] Yankner et al. (Science (1990) 250: 279-282) has developed this property in a culture method as an AD assay procedure.
Differentiated cultures of SH-SY5Y Human neuroblastoma cells were grown to a stage where the cells formed a network of neurites. […] At day 3, after removal of the supernatant and the debris from dead cells by 3 washes with saline, the cells were then lysed and their LDH content was assayed for cell survival by measuring the LDH present in the remaining cells. The results were compared to LDH present in untreated controls, that were incubated for 3 days with no peptide additives (Table 7). The assay assumes that the LDH content of healthy cells remains constant and can be used as an index of living cells. The experiments using anoxia in our previous work were in agreement with this assumption.
This experiment was performed in the method described above for Example 6, Experiment 1, except that the cells were incubated for 4 days instead of 3 to enhance the degenerative effect of the Yankner peptide. […]

[5] = test system: SHSY cells; assay type: cell-based, human; details: 20 μM Yankner peptide alone
Procedure: Aliquots of 3×10^5 SHSY cells were plated in each well of a 24-well microtiter plate in 1 ml of medium containing no peptides (Control=Ctrl), 20 μM Yankner peptide (Yankner), or 20 μM Yankner peptide+75 μM of DQ (SEQ ID NO:2) (Yankner+BTX). Plates were incubated at 37° C. in a 5% CO2 incubator for 3 days, then each well was washed twice with 1×PBS to remove loosely bound cells. The number of remaining cells per ml was determined by microscopy. […] Error bars denote one standard deviation. […] BTX was DQ (SEQ ID NO:2) in this experiment.

[6] = test system: SHSY cells; assay: LDH levels in residual surviving SHSY cells after Yankner peptide; assay type: cell-based, human; details: Yankner peptide alone
Procedure: In a tissue culture model for Alzheimer's disease, treatment with the Yankner peptide (amyloid fragment) causes cell death within 3 days. […] By studying the time course of cell death in this culture model for Alzheimer's disease, it was determined that about 60% of the cells die within 24 hrs. When the neuroprotective/neurorestorative peptide of the invention was added to the cells at the 24 hour time point (e.g., 24 hours after the cells were contacted with the Yankner peptide), over 40% of the injured neurons that were destined to die on day 3 were rescued.
Aliquots of 3×10^5 SHSY cells were plated in each well of a 24-well microtiter plate in 1 ml of medium containing no peptides (control=Ctrl), 20 μM Yankner peptide (Yankner), 20 μM Yankner peptide+75 μM DQ peptide (SEQ ID NO:2) added at time of plating (Yankner+BTX Simultaneous), or 20 μM Yankner+75 μM BTX-639 added 24 hr post plating (Yankner+BTX 24 Hr Post). Plates were incubated at 37° C. in a 5% CO2 incubator for 3 days, then each well was washed twice with 1×PBS to remove loosely bound cells. Whole cell lysates were prepared from the remaining attached (viable) cells, and Lactate dehydrogenase (LDH) activity measured as described in methods. The results are illustrated in FIG. 2, in which each histobar represents the mean of 11 independent trials. Error bars denote one standard deviation. […]

[7] = 300 μM MPP+ + 14 μM peptide, n = 8

C[n+]1ccc(-c2ccccc2)cc1 [MPP+, 1-methyl-4-phenylpyridinium, reference compound]
% Rescue after Treatment for 0 hours ([1]; 300 μM MPP+ alone): 100 ± 2%
% Rescue after Treatment for 24 hours ([1]; 300 μM MPP+ alone): 0 ± 3%
% Rescue after Treatment for 48 hours ([1]; 300 μM MPP+ alone): 0 ± 4%

EVDDDQ [SEQ ID NO: 1]
% Rescue after Treatment for 24 hours ([1]; 300 μM MPP+ + 14 μM (10 μg/ml) peptide, n = 8): 82 ± 2%
% Rescue after Treatment for 24 hours ([1]; 300 μM MPP+ + 14 μM (10 μg/ml) peptide, n = 8, listed as SEQ ID NO:1): 82%
% Rescue after Treatment for 0 hours [1, 7]: 100 ± 2%
% Rescue after Treatment for 48 hours [1, 7]: 56 ± 4%
reversal of the effects of anoxia / neuroprotection from anoxia (in words) [2]: active in reversing the effects of anoxia
effects of anoxia, cell morphology and LDH release (in words) ([2]; 1 ng/ml up to 10 ng/ml in the media, even after the 3 hr OGD treatment, 21 hours normoxia reperfusion): all the effects of anoxia were reversed and cell morphology and LDH release returned to normal
LDH (A 490 nm) ([2]; Table 3, anoxia + 1 ng/ml): 0.33 ± .02 A 490 nm
LDH Released % of Normoxia ([2]; Table 3, anoxia + 1 ng/ml): 100 % of Normoxia
LDH (A 490 nm) ([2]; Table 3, anoxia + 10 ng/ml): 0.22 ± .03 A 490 nm
LDH Released % of Normoxia ([2]; Table 3, anoxia + 10 ng/ml): 68 % of Normoxia
LDH (A 490 nm) ([2]; Table 3, anoxia + 100 ng/ml): 0.161 ± .04 A 490 nm
LDH Released % of Normoxia ([2]; Table 3, anoxia + 100 ng/ml): 50 % of Normoxia
LDH release compared with normoxia controls (in words) ([2]; high doses): decreased LDH release to lower amounts than those present in normoxia controls
neurons rescued ([2]; neurons exposed to a 3 hour oxygen-glucose deprivation (OGD)): 90-100%

CN1CC=C(c2ccccc2)CC1 [MPTP, 1-methyl-4-phenyl-1,2,3,6 tetrahydropyridine, reference compound]
neurons that survive ([3]; 4 days following an IP injection 30 mg/Kg of MPTP, no peptide): 12.5%

[Lip]-VFTPPS (Lip-VFTPPS) [VFTPPS conjugated to lipoic acid at the N-terminal amino acid]
reversal of the effects of anoxia / neuroprotection from anoxia (in words) [2]: promote neuroprotection from anoxia
LDH (A 490 nm) ([2]; Table 4, anoxia + 10 ng/ml): 0.56 ± 0.08 A 490 nm
LDH Released % of Normoxia ([2]; Table 4, anoxia + 10 ng/ml): 169 ± 24 % of Normoxia
LDH (A 490 nm) ([2]; Table 4, anoxia + 100 ng/ml): 0.37 ± 0.04 A 490 nm
LDH Released % of Normoxia ([2]; Table 4, anoxia + 100 ng/ml): 112 ± 12 % of Normoxia

QDDDVE
reversal of the effects of anoxia / neuroprotection from anoxia (in words) [2]: reverse effects of anoxia

[Ac]-QDDDVE (Ac-QDDDVE)
% Rescue per Treatment time 0 hours ([1]; 42 μM peptide + 300 μM MPP+): 100 ± 2%
% Rescue per Treatment time 24 hours ([1]; 42 μM peptide + 300 μM MPP+): 42 ± 4%
% Rescue per Treatment time 48 hours ([1]; 42 μM peptide + 300 μM MPP+): 27 ± 3%
LDH (A 490 nm) ([2]; Table 4, anoxia + 1 ng/ml): 0.33 ± 0.02 A 490 nm
LDH Released % of Normoxia ([2]; Table 4, anoxia + 1 ng/ml): 100 ± 6 % of Normoxia
LDH (A 490 nm) ([2]; Table 4, anoxia + 10 ng/ml): 0.22 ± 0.04 A 490 nm
LDH Released % of Normoxia ([2]; Table 4, anoxia + 10 ng/ml): 67 ± 12 % of Normoxia
LDH (A 490 nm) ([2]; Table 4, anoxia + 100 ng/ml): 0.16 ± 0.05 A 490 nm
LDH Released % of Normoxia ([2]; Table 4, anoxia + 100 ng/ml): 48 ± 15 % of Normoxia

CC[C@H](C)[C@H](NC(=O)[C@H](C)NC(=O)CNC(=O)[C@H](CCCCN)NC(=O)[C@H](CC(N)=O)NC(=O)[C@H](CO)NC(=O)CN)C(=O)N[C@H](C(=O)NCC(=O)N[C@@H](CC(C)C)C(=O)N[C@@H](CCSC)C(=O)O)[C@@H](C)CC [Yankner peptide] (H-GSNKGAIIGLM-OH)
OD 490 nm ([4]; 3 days): 0.568 OD 490 nm
OD 490 nm ([4]; 4 days): 0.127 OD 490 nm
cell death [5]: 50%
cells that die within 24 hrs [6]: about 60%

CC(C)[C@H](NC(=O)[C@H](CCC(=O)O)NC(=O)CCCCC1CCSS1)C(=O)N[C@@H](CC(=O)O)C(=O)N[C@@H](CC(=O)O)C(=O)N[C@@H](CC(=O)O)C(=O)N[C@@H](CCC(N)=O)C(=O)O (stereo partly drawn) [[Lip]-EVDDDQ] ({Lipoyl(6ξ)}-EVDDDQ-OH; C-terminus assumed)
passage through the Blood-Brain Barrier (in words) ([3]; concluded from the in vivo effect): can get through the Blood-Brain Barrier

VFTPPS
reversal of the effects of anoxia / neuroprotection from anoxia (in words) [2]: reverse effects of anoxia

— patent US8507439B2, “Neuroprotective and neurorestorative method and compositions” (priority 2005, dated 2013)
